US20260364184A1, “COMPOUND BASED ON OXOISOINDOLINYL-SUBSTITUTED TETRAHYDROPYRIMIDINE-DIONE AND USE THEREOF” (GLUETACS THERAPEUTICS (SHANGHAI) CO., LTD., priority 2023, published 2026)
Where two headings read alike, the source gives them in different places.

What was measured:
Type in all cases: cell-based
[1] = test system: Human myeloid monocytic leukemia cell line (MV-4-11); test: Inhibition of MV-4-11 cell proliferation (CellTiter luminescent viability); details: Homo sapiens, MV4-11; for inhibition at 0.01 µM: read-out: Inhibition Rate at 10 nM (%); for inhibition at 0.5 µM: read-out: Inhibition Rate at 500 nM (%)
In short: (§1)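 IC50 is fitted from luminescent viability (CellTiter-Meiluncell) curves. Nine-point, 5-fold dilution series (top stock 2000 μM) are added at 0.5 μL per 100 μL medium to cells plated the day before, with growth at 37 °C and 5% CO2.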

[2] = test system: Human lung cancer cell line (H292); test: Inhibition of H292 cell proliferation (CellTiter luminescent viability); details: NCI-H292, H292 cell; for inhibition at 0.01 µM: 10 nM, read-out: Inhibition Rate at 10 nM (%); for inhibition at 0.5 µM: 500 nM, read-out: Inhibition Rate at 500 nM (%)
[3] = test system: Human breast cancer cell line (MDA-MB-231); test: Inhibition of MDA-MB-231 cell proliferation (CellTiter luminescent viability); details: for inhibition at 0.01 µM: read-out: Inhibition Rate at 10 nM (%); for inhibition at 0.5 µM: read-out: Inhibition Rate at 500 nM (%)
Method: The tumor cells used herein were cultured in a cell culture medium listed in table 3 at 37 °C in an incubator with 5% CO2. Prior to experimentation, all cell lines used were correctly identified by STR profiling, and tested negative for mycoplasma contamination using a mycoplasma detection kit through routine screenings.
The IC50 values of the compounds of the present disclosure (including the compounds in Table 1, Table 2, and Examples 1-468) were determined using the CellTiter-Meiluncell Luminescent Cell Viability Assay Kit from Dalian Meilun Biotech Co., Ltd. The detailed procedure is as follows: Tumor cells were seeded in 96-well cell culture plates at the densities specified in Table 4. On the following day, the test compounds of the present disclosure were subjected to serial dilution. The dilution can be performed according to one of the following two methods: • (1) The first dilution method: The test compounds of the present disclosure (including the compounds in Table 1, Table 2, and Examples 1-468) were subjected to 5-fold serial dilutions starting from a highest concentration of 2000 μM, resulting in a total of 9 concentrations from high to low (2000, 400, 80, 16, 3.2, 0.64, 0.128, 0.0256, 0.00512 μM). Subsequently, 0.5 μL of the test compound dilution was transferred into the 96-well plate containing the cells, with each well containing 100 μL of cell culture medium. […] Into the 96-well plate, the diluted test compounds and corresponding detection reagents were added, resulting in final test compound concentrations of 500 nM and 10 nM, respectively. The experimental procedure is described below using the diluted 2 μM test compound as an example.
0.5 μL of the aforementioned diluted compound of the present disclosure (including the compounds in Table 1, Table 2, and Examples 1-468) was added to the seeded cells in 100 μL of medium, yielding a final test compound concentration of 10 nM. After the cells were treated with the compounds of the present disclosure for a specified period, the cell viability assay reagent was added to the culture medium according to the kit's instructions to determine cell viability. […] All controls were treated using the same procedure as the compounds of the present disclosure. The growth inhibition curves for the compounds of the present disclosure were plotted using Prism GraphPad software, and the IC50 values were calculated therefrom.

[4] = test system: Human Multiple myeloma cell line (MM.1S); test: Inhibition of MM.1S cell proliferation (CellTiter luminescent viability); details: Homo sapiens, MM1.S, Table IG1, FAK inhibitor-based, 96 hours
In short: as §1

NCc1ccc2c(c1)CN(N1CCC(=O)NC1=O)C2=O [GT-08118, 1-(5-(aminomethyl)-1-oxoisoindolin-2-yl)dihydropyrimidine-2,4(1H, 3H)-dione]
inhibition at 0.01 µM ([1]; MV-4-11 cell, 10 nM): 40 to 50%
inhibition at 0.5 µM ([1]; MV-4-11 cell, 500 nM): 50 to 60%
inhibition at 0.01 µM [2]: 20 to 30%
inhibition at 0.5 µM [2]: 20 to 30%
inhibition at 0.01 µM ([3]; MDA-MB-231 cell, 10 nM): 20 to 30%
inhibition at 0.5 µM ([3]; MDA-MB-231 cell, 500 nM): 20 to 30%

Nc1cccc2c1CN(C1CCC(=O)NC1=O)C2=O (stereo not drawn) [Lenalidomide, lenalidomide, reference compound]
inhibition at 0.01 µM ([1]; MV-4-11 cell, 10 nM): 20 to 30%
inhibition at 0.5 µM ([1]; MV-4-11 cell, 500 nM): 10 to 15%
inhibition at 0.01 µM [2]: 15 to 20%
inhibition at 0.5 µM [2]: 0 to 5%
inhibition at 0.01 µM ([3]; MDA-MB-231 cell, 10 nM): 0 to 5%
inhibition at 0.5 µM ([3]; MDA-MB-231 cell, 500 nM): 0 to 5%

CNC(=O)c1ccccc1Nc1cc(Nc2ccc(N3CCOCC3)cc2OC)ncc1C(F)(F)F [PND-1186, reference compound]
inhibition at 0.01 µM ([4]; 10 nM, read-out: Inhibition Rate at 10 nM (%)): 5 to 10%
inhibition at 0.5 µM ([4]; 500 nM, read-out: Inhibition Rate at 500 nM (%)): 20 to 30%
inhibition at 0.01 µM ([1]; Table IG2, FAK inhibitor-based, MV-4-11, 10 nM, 96 hours): 5 to 10%
inhibition at 0.5 µM ([1]; Table IG2, FAK inhibitor-based, MV-4-11, 500 nM, 96 hours): 60 to 70%
inhibition at 0.01 µM ([3]; Table IG3, FAK inhibitor-based, MDA-MB-231, 10 nM, 96 hours): 30 to 40%
inhibition at 0.5 µM ([3]; Table IG3, FAK inhibitor-based, MDA-MB-231, 500 nM, 96 hours): 40 to 50%
